According to patent publication EP0095454A2, “Nuclens-substituted pyrogallol derivatives” (Gerot-Pharmazeutika Gesellschaft m.b.H., priority 1982, dated 1983):
Where a name gives a salt, the structure may show the parent alone.

How the values were obtained:
Maus = assay: Writhing test according to Huntingdon (analgesia); type: in vivo; settings: Mus musculus, oral
Protocol: (§1) Sobewirkt z.B. das Hydrochlorid von 2,2-Dimethyl-4- (2' hydroxy-3'-tert.butylaminopropoxy)-1,3-benzodioxol am wachen Hund eine 40-fach intensivere Abschwächung der positiv chronotropen Isoprenalinwirkung als der bekannte B-Blocker Atenolol in gleicher Dosierung und ergibt im Writhing-Test nach Huntingdon mit einer ED 50 von nur 8 mg/kg (Maus, oral) eine gute analgetische Wirkung. Vergleicht man diese im Writhina-Test mit der von bekannten Analgetika, dann zeigt sich die Überlegenheit des neuen Wirkstoffes: […]

ß-Adrenozeptor = assay: Attenuation of the positive chronotropic effect of isoprenaline in the conscious dog; type: in vivo, Hund; settings: intensity relative to the known ß-blocker Atenolol at the same dose
Protocol: as §1

Row | Structure (SMILES) | ED50 (Maus) [mg/kg] | Abschwächung der positiv chronotropen Isoprenalinwirkung (ß-Adrenozeptor)
1 | NC(=O)c1ccccc1OCC(=O)O [Natriumsalz der Salicylamid-O-essigsäure] | 11.5 | 
2 | CCOC(=O)C1(c2ccccc2)CCN(C)CC1 [Pethidin-Hydrochlorid] | 13.3 | 
3 | Cc1c(N(C)CS(=O)(=O)O)c(=O)n(-c2ccccc2)n1C [Metamizol-Natrium] | 10.6 | 
4 | CC(C)(C)NCC(O)COc1cccc2c1OC(C)(C)O2 (centres unmarked) [2,2-Dimethyl-4-(2'-hydroxy-3'-tert.butylamino--propoxy)-1,3-benzodioxol] | 8 | 40 -fach
